Tests used:
[1] = target: T1, human recombinant kinase full-length wildtype AKT1 (Homo sapiens, UniProt P31749); experiment: AKT1 kinase assay (wildtype, TR-FRET, Lance); type: biochemical; settings: 0.6 nM wildtype AKT1, 50 nM Ulight-CREBtide, either 50 μM ATP or 2 mM ATP, 60 min at RT
T1 construct: Purified human recombinant kinase full-length wildtype AKT1 was expressed in insect cells; made in house; host or cells: insect cells
Protocol: AKT1 kinase assay: Inhibitory effects of compounds on wildtype AKT1 were undertaken in a 10-pt dose response kinase activity assay measuring phospho-peptide product formation based on TR-FRET signal as described in the following paragraph.
(§1) Purified human recombinant kinase full-length wildtype AKT1 was expressed in insect cells and activated in vitro by PDPK1. Ulight™-CREBtide (PerkinElmer, catalog number TRF0107) was used as the peptide substrate. The reaction buffer consisted of 50 mM HEPES pH 7.5, 10 mM MgCl2, 0.01% Triton X-100, 0.01% BSA, 2 mM DTT, 0.6 nM AKT1,50 nM Ulight™-CREBtide and either 50 μM ATP or 2 mM ATP. The compound solution was prepared as 10 mM DMSO stock. For the assay, a 1:3 serial dilution 10-pt dose response of test compounds, in duplicate, for each concentration were dispensed into a 384-well plate (Corning, catalog number 4513). Final DMSO concentration in the assay was 1%. The enzyme mixture (5 μL, 1.2 nM) were added and the mixture was incubated for 15 min at RT prior to the start of the kinase reaction by the addition of 5 μL substrate mixture (100 nM Ulight™-CREBtide). The reaction was stopped after 60 min of incubation at RT by the addition of 10 μL of Detection Mix (PerkinElmer, #CR97-100) consisting of Europium-anti-phospho-CREB (Ser133) (Perkin Elmer, catalog number TRF0200). Incubation with the detection mix for a further 60 min allowed binding of antibody to the phospho-Ulight™ CREBtide. The fluorescence emissions at 620 nm and 665 nm after excitation at 350 nm was measured using Envision reader. The ratio of the emissions at 665 nm and at 620 nm provided the measure for the amount of phosphorylated CREBtide product of AKT1 kinase activity. To determine the IC50 values, the data was normalized (enzyme reaction without inhibitor=0% inhibition, all other assay components but no enzyme=100% inhibition) and IC50 values were calculated by a 4-parameter fit using an in-house developed protocol.
The symbol +++ represents an IC50 value <20 μM; the symbol ++ represents an IC50 value from ≥20 μM to 80 μM.

[2] = target: T2, human recombinant kinase full-length AKT1 E17K (Homo sapiens, UniProt P31749, E17K); experiment: AKT1 E17K kinase assay (TR-FRET, Lance); type: biochemical; settings: 0.6 nM AKT1 E17K, 50 nM Ulight-CREBtide, either 50 μM ATP or 2 mM ATP, 60 min at RT
T2 construct: Purified human recombinant kinase full-length AKT1 E17K was expressed in insect cells; made in house; host or cells: insect cells
Protocol: AKT1 E17K kinase assay: Inhibitory effects of compounds on AKT1 E17K were undertaken in a 10-pt dose response kinase activity assay measuring phospho-peptide product formation based on TR-FRET signal as described in the following paragraph.
as §1, with “full-length” for “full-length wildtype”, “AKT1 E17K” for “AKT1”, “AKT1 E17K, 50” for “AKT1,50”, “1.3” for “1:3”
Table 9 assigns each compound a code for potency in the AKT1 E 17K kinase assay: A, B, or C. According to the code, A represents an IC50 value <500 nM; B represents an IC50 value from ≥500 nM to <2000 nM; and C represents an IC50 value ≥2000 nM.

T1 sequence (P31749 whole entry): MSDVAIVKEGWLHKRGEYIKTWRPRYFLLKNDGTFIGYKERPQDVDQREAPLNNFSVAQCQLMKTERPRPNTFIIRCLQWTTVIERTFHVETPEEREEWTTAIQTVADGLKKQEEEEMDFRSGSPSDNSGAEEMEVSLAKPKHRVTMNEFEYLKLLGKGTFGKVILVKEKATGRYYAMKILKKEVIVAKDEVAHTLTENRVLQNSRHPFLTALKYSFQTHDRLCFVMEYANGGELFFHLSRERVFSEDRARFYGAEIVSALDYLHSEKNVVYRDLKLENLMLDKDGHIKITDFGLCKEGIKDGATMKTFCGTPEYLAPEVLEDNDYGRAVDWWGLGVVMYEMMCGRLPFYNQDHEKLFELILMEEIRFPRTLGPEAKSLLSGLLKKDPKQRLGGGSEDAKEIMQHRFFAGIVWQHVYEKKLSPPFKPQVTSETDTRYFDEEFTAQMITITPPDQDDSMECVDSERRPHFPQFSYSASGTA
T2 sequence (P31749 whole entry E17K): as the sequence (P31749 whole entry) above, with E17K counted along it

Structure (SMILES) | IC50 [1] [µM] | IC50 [2] [µM]
Nc1ncccc1-c1nc2ccc(-c3ccccc3)nc2n1-c1ccc(NC(=O)[C@H]2CC[C@H](C(=O)O)CC2)c(F)c1 [Compound I-6, (1r,4r)-4-((4-(2-(2-aminopyridin-3-yl)-5-phenyl-3H-imidazo[4,5-b]pyridin-3-yl)-2-fluorophenyl)carbamoyl)cyclohexane-1-carboxylic acid] | < 20 | 0.5 to 2
Nc1ncccc1-c1nc2ccc(-c3ccccc3)nc2n1-c1ccc(NC(=O)C23CC(C(=O)O)(C2)C3)nc1 [Compound I-7, 3-((5-(2-(2-aminopyridin-3-yl)-5-phenyl-3H-imidazo[4,5-b]pyridin-3-yl)pyridin-2-yl)carbamoyl)bicyclo[1.1.1]pentane-1-carboxylic acid] | 20 to 80 | ≥ 2
Nc1ncccc1-c1nc2ccc(-c3ccccc3)nc2n1-c1ccc(NC(=O)C2CCC(C(=O)O)C2)nc1 (stereo not shown) [Compound I-8, 3-((5-(2-(2-aminopyridin-3-yl)-5-phenyl-3H-imidazo[4,5-b]pyridin-3-yl)pyridin-2-yl)carbamoyl)cyclopentane-1-carboxylic acid] | < 20 | 0.5 to 2
Nc1ncccc1-c1nc2ccc(-c3ccccc3)nc2n1-c1ccc(NC(=O)C23CCC(C(=O)O)(C2)C3)nc1 [Compound I-9, 4-((5-(2-(2-aminopyridin-3-yl)-5-phenyl-3H-imidazo[4,5-b]pyridin-3-yl)pyridin-2-yl)carbamoyl)bicyclo[2.1.1]hexane-1-carboxylic acid] | < 20 | 0.5 to 2
Nc1ncccc1-c1nc2ccc(-c3ccccc3)nc2n1-c1ccc(NC(=O)[C@H]2CC[C@H](C(=O)O)CC2)nc1 [Compound I-10, (1r,4r)-4-((5-(2-(2-aminopyridin-3-yl)-5-phenyl-3H-imidazo[4,5-b]pyridin-3-yl)pyridin-2-yl)carbamoyl)cyclohexane-1-carboxylic acid] | < 20 | < 0.5
Nc1ncccc1-c1nc2ccc(-c3ccccc3)nc2n1-c1ccc(NC(=O)C2CCCC(C(=O)O)C2)nc1 (stereo not shown) [Compound I-11, 3-((5-(2-(2-aminopyridin-3-yl)-5-phenyl-3H-imidazo[4,5-b]pyridin-3-yl)pyridin-2-yl)carbamoyl)cyclohexane-1-carboxylic acid] | < 20 | < 0.5
Nc1ncccc1-c1nc2ccc(-c3ccccc3)nc2n1-c1ccc(NCC2CCC(C(=O)O)CC2)nc1 (stereo not shown) [Compound I-12, 4-(((5-(2-(2-aminopyridin-3-yl)-5-phenyl-3H-imidazo[4,5-b]pyridin-3-yl)pyridin-2-yl)amino)methyl)cyclohexane-1-carboxylic acid] | < 20 | < 0.5
Nc1ncccc1-c1nc2ccc(-c3ccccc3)nc2n1-c1ccc(NC2CCC(C(=O)O)C2)nc1 (stereo not shown) [Compound I-13, 3-((5-(2-(2-aminopyridin-3-yl)-5-phenyl-3H-imidazo[4,5-b]pyridin-3-yl)pyridin-2-yl)amino)cyclopentane-1-carboxylic acid] | < 20 | ≥ 2
Nc1ncccc1-c1nc2ccc(-c3ccccc3)nc2n1-c1ccc(C(=O)N[C@H]2CC[C@H](C(=O)O)CC2)cc1 [Compound I-16, (1r,4r)-4-(4-(2-(2-aminopyridin-3-yl)-5-phenyl-3H-imidazo[4,5-b]pyridin-3-yl)benzamido)cyclohexane-1-carboxylic acid] | < 20 | < 0.5
Nc1ncccc1-c1nc2ccc(-c3ccccc3)nc2n1-c1ccc(C(=O)N[C@H]2CC[C@@H](C(=O)O)CC2)cc1 [Compound I-17, (1s,4s)-4-(4-(2-(2-aminopyridin-3-yl)-5-phenyl-3H-imidazo[4,5-b]pyridin-3-yl)benzamido)cyclohexane-1-carboxylic acid] | < 20 | 0.5 to 2
Nc1ncccc1-c1nc2ccc(-c3ccccc3)nc2n1-c1ccc(C(=O)N[C@H]2CC[C@@H](C(=O)O)CC2)nc1 [Compound I-18, (1s,4s)-4-(5-(2-(2-aminopyridin-3-yl)-5-phenyl-3H-imidazo[4,5-b]pyridin-3-yl)picolinamido)cyclohexane-1-carboxylic acid] | < 20 | ≥ 2

Reference: US20260200920A1, “SUBSTITUTED AMINOPYRIDINE COMPOUNDS FOR USE AS AKT1 INHIBITORS” (Atavistik Bio, Inc., priority 2023, published 2026)
